{"source": "patent US8586555B2", "about": "“Immunomodulatory compositions, formulations, and methods for use thereof” (Dynavax Technologies Corporation, priority 2001, dated 2013)", "type_in_all_cases": "cell-based", "key": {"[1]": {"tested_on": "human peripheral blood mononuclear cells (hPBMC)", "test": "human PBMC assay, Example 4 (oligos and PLGA premixed 15 minutes)", "method": "(§1) Hexameric oligonucleotides were tested for immunomodulatory activity alone and complexed with lactic acid/glycolic acid copolymer microcarrier beads using a human peripheral blood mononuclear cells (hPBMC) assay. Peripheral blood was collected from healthy volunteers by venipuncture using heparinized syringes. Blood was layered onto a FICOLL® (Amersham Pharmacia Biotech) cushion and centrifuged. hPBMCs, located at the FICOLL® interface, were collected, then washed twice with cold phosphate buffered saline (PBS). The cells were resuspended and cultured in 48 well plates at 2×10^6 cells/mL at 37° C. in RPMI 1640 with 10% heat-inactivated human AB serum plus 50 units/mL penicillin, 50 μg/mL streptomycin, 300 μg/mL glutamine, 1 mM sodium pyruvate, and 1×MEM non-essential amino acids (NEAA).\n(§2) Oligonucleotides were tested as single agents, or in combination with PLGA microspheres (unmodified or cationic). All oligonucleotides contained 100% phosphorothioate linkages and were tested at 20 μg/ml. The PLGA microcarriers were used at 250 μg/ml. When oligos were tested with PLGA microcarriers, the oligo and the microcarriers were added at the same time to the culture. The cells were cultured in the in the presence of test samples for 24 hours, then cell-free medium was collected from each well and assayed for IFN-γ and IFN-α concentration. Two different oligonucleotides were used as controls: a first oligonucleotide known to have immunostimulatory activity (a 22mer oligonucleotide containing an ISS (“ISS+,” 5′-[…]-3′(SEQ ID NO:2)) and a second oligonucleotide of similar sequence but lacking immunostimulatory activity (“ISS−,” 5′-[…]-3′ (SEQ ID NO:1)). SAC (PANSORBIN® CalBiochem, 1/5000 dilution) and a untreated culture were used as additional positive and negative controls, respectively. SAC contains Staph. aureus (Cowan I) cell material. All samples were assayed in duplicate.\n(§3) IFN-γ and IFN-α were assayed using CYTOSCREEN™ ELISA kits from BioSource International, Inc., according to the manufacturer's instructions.\nAdditional hexameric and pentameric oligonucleotides were tested for immunomodulatory activity in the PBMC assay. Oligonucleotides 6-6 (5′-TCGAGA-3′), 6-8 (5′-GTCGAC-3′), 6-9 (5′-GTCGTT-3′), 6-2 (5′-TCGTTT-3′), 6-3 (5′-TTCGTT-3′), 6-4 (5′-TTTCGT-3′), 5-1 (5′-TCGTC-3′), and 5-2 (5′-TCGTT-3′) were tested alone or in combination with cationic PLGA as described in Example 3 except that the oligos and PLGA were premixed for 15 minutes room temperature before addition to the cultures. The test articles were assayed using PBMC isolated from donors 28044 and 28045."}, "[2]": {"tested_on": "human peripheral blood mononuclear cells (hPBMC)", "test": "human PBMC assay, Example 5 (96 well plates, premixed)", "method": "as §1, §2, §3\n(§4) The immunomodulatory activity of the oligonucleotides used in Examples 3 and 4 was confirmed with the human PBMC assay using PBMCs from an additional four donors (donors 28051-28054). Oligonucleotides were tested alone or in combination with cationic PLGA as described in Example 3, except that 96 well plates were used instead of 48 well plates and the oligonucleotides were premixed with the cationic microspheres at room temperature for 15 minutes before they were added to the culture, rather than being added simultaneously to the culture."}, "[3]": {"tested_on": "human peripheral blood mononuclear cells (hPBMC)", "test": "human PBMC assay, Example 7 (oligo 20 μg/ml, cPLGA 100 μg/ml)", "method": "as §1, §2, §3, §4\nAdditional oligonucleotides, some incorporating modified bases, were tested for immunomodulatory activity in the human PBMC assay. Oligonucleotides were tested alone or in combination with cPLGA as described in Example 5. The oligonucleotides were premixed with the cationic PLGA microspheres for 15 minutes at room temperature at concentrations of 20 μg/ml and 100 μg/ml, respectively."}}, "data": [{"substance": "5′-TCGTT-3′ [Oligonucleotide 5-2]", "values": [{"measurement": "IFN-α", "setting": "[1]; donor 28044", "result": 0, "unit": "pg/mL"}, {"measurement": "IFN-γ", "setting": "[1]; donor 28044", "result": 4, "unit": "pg/mL"}, {"measurement": "IFN-α", "setting": "[1]; donor 28045", "result": 0, "unit": "pg/mL"}, {"measurement": "IFN-γ", "setting": "[1]; donor 28045", "result": 0, "unit": "pg/mL"}, {"measurement": "IFN-α Mean", "setting": "[1]; mean of donors 28044, 28045", "result": 0, "unit": "pg/mL"}, {"measurement": "IFN-γ Mean", "setting": "[1]; mean of donors 28044, 28045", "result": 2, "unit": "pg/mL"}, {"measurement": "immunomodulatory activity", "setting": "[2]; delivered alone", "result": "inactive"}, {"measurement": "immunomodulatory activity", "setting": "[2]; delivered as IMO/MC complexes (cPLGA)", "result": "highly active"}, {"measurement": "IFN-α", "setting": "[2]; donor 28051", "result": 1, "unit": "pg/mL"}, {"measurement": "IFN-γ", "setting": "[2]; donor 28051", "result": 1, "unit": "pg/mL"}, {"measurement": "IFN-α", "setting": "[2]; donor 28052", "result": 5, "unit": "pg/mL"}, {"measurement": "IFN-γ", "setting": "[2]; donor 28052", "result": 0, "unit": "pg/mL"}, {"measurement": "IFN-α", "setting": "[2]; donor 28053", "result": 0, "unit": "pg/mL"}, {"measurement": "IFN-γ", "setting": "[2]; donor 28053", "result": 0, "unit": "pg/mL"}, {"measurement": "IFN-α", "setting": "[2]; donor 28054", "result": 2, "unit": "pg/mL"}, {"measurement": "IFN-γ", "setting": "[2]; donor 28054", "result": 1, "unit": "pg/mL"}, {"measurement": "IFN-α Mean", "setting": "[2]; mean of donors 28051-28054", "result": 2, "unit": "pg/mL"}, {"measurement": "IFN-γ Mean", "setting": "[2]; mean of donors 28051-28054", "result": 0, "unit": "pg/mL"}, {"measurement": "immunomodulatory activity", "setting": "[3]; combined with cPLGA", "result": "active in two of four donors"}, {"measurement": "IFN-α", "setting": "[3]; donor 28115", "result": 0, "unit": "pg/mL"}, {"measurement": "IFN-γ", "setting": "[3]; donor 28115", "result": 8, "unit": "pg/mL"}, {"measurement": "IFN-α", "setting": "[3]; donor 28116", "result": 0, "unit": "pg/mL"}, {"measurement": "IFN-γ", "setting": "[3]; donor 28116", "result": 4, "unit": "pg/mL"}, {"measurement": "IFN-α", "setting": "[3]; donor 28117", "result": 0, "unit": "pg/mL"}, {"measurement": "IFN-γ", "setting": "[3]; donor 28117", "result": 8, "unit": "pg/mL"}, {"measurement": "IFN-α", "setting": "[3]; donor 28118", "result": 0, "unit": "pg/mL"}, {"measurement": "IFN-γ", "setting": "[3]; donor 28118", "result": 0, "unit": "pg/mL"}, {"measurement": "IFN-α Mean", "setting": "[3]; mean of donors 28115-28118", "result": 0, "unit": "pg/mL"}, {"measurement": "IFN-γ Mean", "setting": "[3]; mean of donors 28115-28118", "result": 5, "unit": "pg/mL"}]}]}
